# From publication PMC6271077, “Synthesis, Anticancer and Antibacterial Activity of Salinomycin N-Benzyl Amides” (Molecules, 2014)
# Read-outs that look alike come from different tables or passages of the source.
# Legend:
# [1] = tested on: M. tuberculosis isoniazid-sensitive strain (spec. 192); assay: Tuberculostatic activity, test-tube dilution; format: cell-based; conditions: Mycobacterium tuberculosis, read-out: MIC M. tuberculosis Isoniazid-Sensitive Strain
# HL-60 = assay: Antiproliferative MTT assay, HL-60; format: cell-based, human; conditions: for IC50: Homo sapiens, read-out: IC50 HL-60; for SI HL-60: SI = IC50 BALB/3T3 / IC50 HL-60
# Source text: (§1) Four human cancer cell lines and one normal cell line were used to evaluate anticancer activity of SAL and its N-benzyl amides: human acute promyelocytic leukemia (HL-60) and its vincristine resistant subline (HL-60/vinc), human colon adenocarcinoma cell lines sensitive (LoVo) and resistant to doxorubicin (LoVo/dx) as well as also normal murine embryonic fibroblast cell line (BALB/3T3). The BALB/3T3 cell line was purchased from the American Type Culture Collection (ATCC Rockville, MD, USA), HL-60 cell line from European Type Culture Collection by courtesy of Professor Spik and Dr Mazurier (Laboratory of Biological Chemistry USTL, Lille, France) and HL-60/vinc, LoVo and LoVo/dx by courtesy of Prof. E. Borowski (Technical University of Gdańsk, Gdańsk, Poland). All the cell lines are maintained in the Institute of Immunology and Experimental Therapy (IIET), Wrocław, Poland.
# (§2) Human leukemia cells were cultured in ISCOVE medium (IIET, Wroclaw, Polond) containing 10% fetal bovine serum and 2 mM L-glutamine (Sigma Aldrich) and 1 µg/100 mL […] for HL-60/vinc (Sigma Aldrich). Human colon adenocarcinoma cell lines were cultured in mixture of OptiMEM and RPMI 1640 (1:1) medium (IIET) supplemented with 5% fetal bovine serum (Thermo Fisher Scientific, Waltham, MA, USA), 2 mM L-glutamine, 1 mM sodium pyruvate (Sigma Aldrich) and 10 µg/100 mL doxorubicin for LoVo/dx (Sigma Aldrich). Murine embryonic fibroblast cells were cultured in Dulbecco medium (Gibco, Darmstadt, Germany) supplemented with 10% fetal bovine serum (Thermo Fisher Scientific) and 2 mM L-glutamine (Sigma Aldrich). All culture media contained antibiotics: 100 U/mL penicillin (Sigma Aldrich) and 100 µg/mL streptomycin (Polfa-Tarchomin, City, Poland). All cell lines were cultured during entire experiment in humid atmosphere at 37 °C and 5% CO2.
# (§3) Twenty four hours before adding the tested compounds all cell lines were seeded in 96-well plates (Sarstedt, Nümbrecht, Germany) in appropriate media with 10^4 cells per well. All cell lines were exposed to each tested agent at four different concentrations from the range 100 to 0.1 µg/mL for 72 h. The cells were also exposed to the reference drugs: cisplatin (Accord, London, UK) and doxorubicin hydrochloride (Fluka, St. Louis, MO, USA). Additionally, all cell lines were exposed to DMSO (the solvent used for tested compounds, Sigma Aldrich) at the concentrations corresponding to those in the tested agent dilutions. For adherent cells sulphorodamine B assay was performed and MTT assay for leukemia cells.
# (§4) Proliferation inhibition of leukemia cells by tested compounds was measured by means of MTT assay. Thus, 20 µL of 3-(4,5-dimethylthiazol-2-yl)-2,5-diphenyl tetrazolium bromide solution (Sigma Aldrich) were added to each well and plates were left in cell incubator for 4 h to allow the cells to metabolize yellow MTT to blue formazan. Then, the lysing mixture consisting of 225 mL dimethylformamide, 67.5 g sodium dodecyl sulfate (both from Sigma Aldrich) and 275 mL of distilled water was added in 80 µL volume per well. Plates were incubated for 24 h for the formazan crystals to be released from cells, dissolved and then absorbance of each well was read at Synergy H4 photometer (BioTek Instruments) at 570 nm wavelength.
# (§5) Results are presented as mean IC50 (concentration of the tested compound that inhibits cell proliferation by 50%) ± standard deviation. IC50 values were calculated in Cheburator 1.0.2, Dmitry Nevozhay software for each experiment. Compounds at each concentration were tested in triplicates in single experiment and each experiment was repeated at least three times independently. The IR was defined as the ratio of IC50 for a given compound calculated for resistant cell line to that measured for its parental drug sensitive cell line (Table 4).
# [2] = tested on: standard and "wild" strains of M. tuberculosis; assay: Tuberculostatic activity, all M. tuberculosis strains (overall); format: cell-based; conditions: Mycobacterium tuberculosis, H37RV, read-out: MIC (over M. tuberculosis strains)
# [3] = tested on: M. tuberculosis standard H37Rv strain; assay: Tuberculostatic activity, test-tube dilution; format: cell-based; conditions: Mycobacterium tuberculosis, read-out: MIC M. tuberculosis Standard H37Rv Strain
# HL-60/vinc = assay: Antiproliferative MTT assay, HL-60/vinc; format: cell-based, human; conditions: for IC50: Homo sapiens, HL60/vinc, 72 h, read-out: IC50 HL-60/vinc; for IR HL-60/vinc: IR = IC50 HL-60/vinc / IC50 HL-60; for SI HL-60/vinc: SI = IC50 BALB/3T3 / IC50 HL-60/vinc
# Source text: as §1, §2, §3, §4, §5
# LoVo = assay: Antiproliferative SRB assay, LoVo; format: cell-based, human; conditions: for IC50: Homo sapiens, LoVo, 72 h, read-out: IC50 LoVo; for SI LoVo: SI = IC50 BALB/3T3 / IC50 LoVo
# Source text: as §1, §2, §3
# (§6) After 72 h of incubation with tested compounds the cells were fixed in situ by gently adding of 50 µL per well of cold 50% trichloroacetic acid TCA (Avantor Performance Materials, City, Poland) and were incubated at 4 °C for 1 h. Then the wells were washed four times with water and air-dried. Next, 50 µL of 0.2% solution of sulphorodamine B (Sigma Aldrich) in 1% acetic acid (Avantor Performance Materials) were added to each well and plates were incubated at room temperature for 0.5 h. After incubation time, unbound dye was removed by washing plates four times with 1% acetic acid, whereas the stain bound to cells was solubilized with 150 µL of 10 mM Tris base (Sigma Aldrich). Absorbance of each solution was read at Synergy H4 photometer (BioTek Instruments, Winooski, VT, USA) at 540 nm wavelength.
# as §5
# LoVo/dx = assay: Antiproliferative SRB assay, LoVo/dx; format: cell-based, human; conditions: for IC50: Homo sapiens, LoVo/DX, 72 h, read-out: IC50 LoVo/dx; for IR LoVo/DX: IR = IC50 LoVo/dx / IC50 LoVo; for SI LoVo/DX: SI = IC50 BALB/3T3 / IC50 LoVo/dx
# Source text: as §1, §2, §3, §6, §5
# [4] = tested on: HL-60, HL-60/vinc, LoVo, LoVo/dx; assay: Antiproliferative assays, all four cancer cell lines (range given); format: cell-based; conditions: Homo sapiens; range over HL-60, HL-60/vinc, LoVo, LoVo/dx; read-out: IC50 (range over the cancer cell lines)
# Source text: as §1, §2, §3, §6
# Proliferation inhibition of leukemia cells by tested compounds was measured by means of MTT assay. […]
# [5] = HL-60, 72 h, MTT, mean ± SD, NA: not active in concentrations used (up to 100 µg/mL)
SMILES,MIC [1] [mg/L],IC50 (HL-60; [5]) [µM],SI HL-60 (HL-60),MIC [2] [mg/L],MIC [3] [mg/L],IC50 (HL-60/vinc) [µM],IR HL-60/vinc (HL-60/vinc),SI HL-60/vinc (HL-60/vinc),"IC50 (LoVo; SRB, mean ± SD) [µM]",SI LoVo (LoVo),IC50 (LoVo/dx) [µM],IR LoVo/DX (LoVo/dx),SI LoVo/DX (LoVo/dx),IC50 [4] [µM],"IC50 (HL-60; HL-60, 72 h) [µM]",IC50 (LoVo) [µM],"MIC ([1]; wild strain spec. 192, Youmans' medium, 37 °C, tested 3.1-100 µg/mL) [mg/L]","MIC ([3]; Youmans' medium, 37 °C, tested 3.1-100 µg/mL) [mg/L]"
CC[C@H](C(=O)NCc1cccc(Br)c1)C1CC[C@H](C)C([C@@H](C)[C@H](O)[C@H](C)C(=O)[C@H](CC)C2O[C@]3(C=C[C@@H](O)C4(CC[C@@](C)(C5CC[C@](O)(CC)[C@H](C)O5)O4)O3)[C@H](C)C[C@@H]2C)O1 (some centres unmarked) [Br-m],> 100,3.38 ± 1.09,2.74,> 100,> 100,7.08 ± 1.73,2.09,1.31,5.23 ± 0.22,1.77,3.39 ± 0.15,0.65,2.73,–,–,–,–,–
CC[C@H](C(=O)NCc1ccc(Br)cc1)C1CC[C@H](C)C([C@@H](C)[C@H](O)[C@H](C)C(=O)[C@H](CC)C2O[C@]3(C=C[C@@H](O)C4(CC[C@@](C)(C5CC[C@](O)(CC)[C@H](C)O5)O4)O3)[C@H](C)C[C@@H]2C)O1 (some centres unmarked) [Br-p],50,20.7 ± 4.66,0.41,–,50,33.5 ± 10.9,1.62,0.25,16.3 ± 0.96,0.52,4.97 ± 2.76,0.30,1.69,–,–,–,–,–
CC[C@H](C(=O)NCc1cccc(Cl)c1)C1CC[C@H](C)C([C@@H](C)[C@H](O)[C@H](C)C(=O)[C@H](CC)C2O[C@]3(C=C[C@@H](O)C4(CC[C@@](C)(C5CC[C@](O)(CC)[C@H](C)O5)O4)O3)[C@H](C)C[C@@H]2C)O1 (some centres unmarked) [Cl-m],> 100,3.83 ± 0.09,4.52,–,100,6.59 ± 1.22,1.72,2.63,11.6 ± 5.12,1.49,2.96 ± 0.99,0.25,5.86,–,–,–,–,–
CC[C@H](C(=O)NCc1ccccc1Cl)C1CC[C@H](C)C([C@@H](C)[C@H](O)[C@H](C)C(=O)[C@H](CC)C2O[C@]3(C=C[C@@H](O)C4(CC[C@@](C)(C5CC[C@](O)(CC)[C@H](C)O5)O4)O3)[C@H](C)C[C@@H]2C)O1 (some centres unmarked) [Cl-o],50,3.18 ± 0.69,1.89,–,100,3.99 ± 1.47,1.25,1.50,3.85 ± 0.05,1.56,2.91 ± 0.22,0.76,2.06,2.32 to 6.84,–,–,–,–
"CC[C@H](C(=O)NCc1ccc(Cl)cc1)C1CC[C@H](C)C([C@@H](C)[C@H](O)[C@H](C)C(=O)[C@H](CC)C2O[C@]3(C=C[C@@H](O)C4(CC[C@@](C)(C5CC[C@](O)(CC)[C@H](C)O5)O4)O3)[C@H](C)C[C@@H]2C)O1 (some centres unmarked) [Cl-p, p-chlorobenzyl amide of salinomycin]",100,36.2 ± 3.03,0.21,–,100,46.8 ± 12.5,1.29,0.16,19.3 ± 4.03,0.40,16.6 ± 4.81,0.86,0.46,–,–,–,–,–
CCC(C(=O)NCc1cccc(F)c1)C1CCC(C)C(C(C)C(O)C(C)C(=O)C(CC)C2OC3(C=CC(O)C4(CCC(C)(C5CCC(O)(CC)C(C)O5)O4)O3)C(C)CC2C)O1 (centres unmarked) [F-m],> 100,–,0.10,–,100,–,–,–,–,0.48,3.91 ± 2.1,0.29,1.65,–,65 ± 35.3,13.5 ± 0.28,–,–
"NNC(=O)c1ccncc1 [Isoniazid, isoniazid, reference compound]",–,–,–,3.1 to 6.25,–,–,–,–,–,–,–,–,–,–,–,–,< 3.1,< 3.1
CC[C@H](C(=O)NCc1cccc([N+](=O)[O-])c1)C1CC[C@H](C)C([C@@H](C)[C@H](O)[C@H](C)C(=O)[C@H](CC)C2O[C@]3(C=C[C@@H](O)C4(CC[C@@](C)(C5CC[C@](O)(CC)[C@H](C)O5)O4)O3)[C@H](C)C[C@@H]2C)O1 (some centres unmarked) [NO2-m],100,8.78 ± 1.73,2.84,–,100,24.6 ± 8,2.80,1.01,16.1 ± 1.61,1.54,3.26 ± 0.84,0.20,7.64,–,–,–,–,–
